Laboratory results from patent US20140315876A1, “BETA-LACTAMASE INHIBITORS” (priority 2013, published 2014).
Structures can show the parent of a compound that is named as a salt.

Legend:
[1] = test system: bacterial strains that express KPC β-lactamases; assay: Synergy MIC / standard BLI potentiation MIC assay, strains expressing KPC β-lactamases; assay type: cell-based; settings: more active for at least one KPC strain and/or better spectrum of activity than Avibactam; in the presence of a β-lactam
Description: The experimental protocol was performed according to Clinical and Laboratory Standards Institute (CLSI) guidelines with modifications as described below (CLSI guidelines can be derived from the CLSI document M07-A9 published in January 2012: “Methods for Dilution Antimicrobial Susceptibility Tests for Bacteria That Grow Aerobically; Approved Standard-Ninth Edition”).
To prepare for MIC testing, frozen glycerol stocks of clinical isolates (Klebsiella pneumoniae, Eschericia coli, Enterobacter spp, Citrobacter spp, or Pseudomonas aeruginosa) were used to streak for isolated colonies on rich, non-selective, tryptic soy agar containing 5% sheep's blood (TSAB). Frozen glycerol stocks of laboratory engineered, isogenic E. coli strains, which contain cloned β-lactamase expressing plasmids were used to streak for isolated colonies on rich, selective LB agar supplemented with 25 μg/mL tetracycline to maintain the plasmid. All strains were incubated at 37° C. for 18-24 hrs.
On the day of testing, primary cultures were started by scraping off 5-10 colonies from the TSAB plates containing clinical strains or the tetracycline supplemented LB plates containing engineered strains. The clinical strain material was suspended in ˜5 mL of cation adjusted Mueller Hinton Broth (CAMHB) in 14 mL culture tubes. The engineered strain material was suspended in CAMHB (supplemented with 25 μg/mL tetracycline) in 14 mL culture tubes. All strains were incubated at 37° C. with aeration (200 rpm) for ˜2 hrs until the optical density at 600 nm (OD600) was ≧0.1.
The two compound components of the assay were each diluted in CAMHB and added to the 96-well broth microdilution assay plates. 50 μL of the β-lactam was added to each well of the assay plate in 2-fold dilutions with final concentrations ranging from 128 to 0.13 μg/mL. 25 μL of the BLI compound was added to all wells in the broth microdilution plates at a final concentration of 4 μg/mL. Inoculum cultures were prepared by standardizing the primary cultures to OD600=0.1 and then adding 20 μL of the adjusted primary culture per 1 mL CAMHB for clinical strains or CAMHB (supplemented with tetracycline at 100 μg/mL) for engineered strains, so that the final inoculum density was ˜10^5 colony forming units per milliliter. Diluted inoculum cultures were used to inoculate 25 μL per well in 96-well broth microdilution assay plates. The final volume of each well was 100 μL and contained a β-lactam at different concentrations, a BLI compound at 4 μg/mL concentration, the bacterial culture at an OD600 of approximately 0.001 and when necessary tetracycline at 25 μg/mL.
Plates were incubated for 18-20 hours at 37° C. with aeration (200 rpm). Following incubation, growth was confirmed visually placing plates over a viewing apparatus (stand with a mirror underneath) and then OD600 was measured using a SpectraMax 340PC384 plate reader (Molecular Devices, Sunnyvale, Calif.). Growth was defined as turbidity that could be detected with the naked eye or achieving minimum OD600 of 0.1. MIC values were defined as the lowest concentration producing no visible turbidity.
The synergy MIC (sMIC) assay determines the concentration of the BLI required to potentiate the activity of a fixed concentration of a β-lactam antibiotic against β-lactamase producing bacterial strains. The experimental protocol was performed according to Clinical and Laboratory Standards Institute (CLSI) guidelines with modifications as described below (CLSI guidelines can be derived from the CLSI document M07-A9 published in January 2012: “Methods for Dilution Antimicrobial Susceptibility Tests for Bacteria That Grow Aerobically; Approved Standard-Ninth Edition”). […]

[2] = test system: bacterial strains that express the class D cephalosporinase OXA-15; assay: Synergy MIC / standard BLI potentiation MIC assay, strains expressing OXA-15; assay type: cell-based, E. coli; settings: in the presence of a β-lactam; comparator Avibactam (comparator compound CCC)
Outline: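 Broth microdilution in CAMHB per CLSI, ~10^5 CFU/mL, 18-20 h at 37° C; MIC is lowest concentration with no visible turbidity. Potentiation: β-lactam 128-0.13 μg/mL with BLI fixed at 4 μg/mL. Synergy: BLI serially diluted with β-lactam fixed. Engineered E. coli kept on 25 μg/mL tetracycline.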

Structure (SMILES) | activity and/or spectrum of activity against bacterial strains that express KPC β-lactamases, compared with Avibactam [1] | activity against bacterial strains that express the class D cephalosporinase OXA-15, compared with Avibactam [2]
N[C@H]1C[C@@H](CCc2nnc([C@@H]3CC[C@@H]4CN3C(=O)N4OS(=O)(=O)O)o2)C1 [Compound 754, (2S,5R)-2-(5-(2-((1s,3S)-3-aminocyclobutyl)ethyl)-1,3,4-oxadiazol-2-yl)-7-oxo-1,6-diazabicyclo[3.2.1]octan-6-yl hydrogen sulfate] | more active than Avibactam | more active than Avibactam
O=C1N2C[C@@H](CC[C@H]2c2nnc(CCNCCO)o2)N1OS(=O)(=O)O [Compound 736, (2S,5R)-2-(5-(2-((2-hydroxyethyl)amino)ethyl)-1,3,4-oxadiazol-2-yl)-7-oxo-1,6-diazabicyclo[3.2.1]octan-6-yl hydrogen sulfate] | more active than Avibactam | more active than Avibactam
CNCCc1nnc([C@@H]2CC[C@@H]3CN2C(=O)N3OS(=O)(=O)O)o1 [Compound 722, (2S,5R)-2-(5-(2-(methylamino)ethyl)-1,3,4-oxadiazol-2-yl)-7-oxo-1,6-diazabicyclo[3.2.1]octan-6-yl hydrogen sulfate] | more active than Avibactam | more active than Avibactam
N[C@H]1C[C@H](c2nnc([C@@H]3CC[C@@H]4CN3C(=O)N4OS(=O)(=O)O)s2)C1 [Compound 783, (2S,5R)-2-(5-((1r,3S)-3-aminocyclobutyl)-1,3,4-thiadiazol-2-yl)-7-oxo-1,6-diazabicyclo[3.2.1]octan-6-yl hydrogen sulfate] | more active than Avibactam | more active than Avibactam
N=C(N)NCC1(c2nnc([C@@H]3CC[C@@H]4CN3C(=O)N4OS(=O)(=O)O)o2)CC1 [Compound 723, (2S,5R)-2-(5-(1-(guanidinomethyl)cyclopropyl)-1,3,4-oxadiazol-2-yl)-7-oxo-1,6-diazabicyclo[3.2.1]octan-6-yl hydrogen sulfate] | more active than Avibactam | more active than Avibactam
O=C1N2C[C@@H](CC[C@H]2c2nnc(C3CCNCC3)o2)N1OS(=O)(=O)O [Compound 711, (2S,5R)-7-oxo-2-(5-(piperidin-4-yl)-1,3,4-oxadiazol-2-yl)-1,6-diazabicyclo[3.2.1]octan-6-yl hydrogen sulfate] | more active than Avibactam | more active than Avibactam
O=C1N2C[C@@H](CC[C@H]2c2nnc(CN[C@@H]3CCNC3)o2)N1OS(=O)(=O)O [Compound 766, (2S,5R)-7-oxo-2-(5-(((R)-pyrrolidin-3-ylamino)methyl)-1,3,4-oxadiazol-2-yl)-1,6-diazabicyclo[3.2.1]octan-6-yl hydrogen sulfate] | more active than Avibactam | more active than Avibactam
O=C1N2C[C@@H](CC[C@H]2c2nnc([C@@H]3CCNC3)o2)N1OS(=O)(=O)O [Compound 759, (2S,5R)-7-oxo-2-(5-((R)-pyrrolidin-3-yl)-1,3,4-oxadiazol-2-yl)-1,6-diazabicyclo[3.2.1]octan-6-yl hydrogen sulfate] | more active than Avibactam | more active than Avibactam
NC1CC(NCc2nnc([C@@H]3CC[C@@H]4CN3C(=O)N4OS(=O)(=O)O)o2)C1 (stereo partly drawn) [Compound 755, (2S,5R)-2-(5-(((3-aminocyclobutyl)amino)methyl)-1,3,4-oxadiazol-2-yl)-7-oxo-1,6-diazabicyclo[3.2.1]octan-6-yl hydrogen sulfate] | more active than Avibactam | more active than Avibactam
NC(=O)c1nnc([C@@H]2CC[C@@H]3CN2C(=O)N3OS(=O)(=O)O)o1 [Compound 706, (2S,5R)-2-(5-carbamoyl-1,3,4-oxadiazol-2-yl)-7-oxo-1,6-diaza-bicyclo[3.2.1]octan-6-yl hydrogen sulfate] | more active than Avibactam | more active than Avibactam
O=C1N2C[C@@H](CC[C@H]2c2nnc(CNC3CNC3)o2)N1OS(=O)(=O)O [Compound 726, (2S,5R)-2-(5-((azetidin-3-ylamino)methyl)-1,3,4-oxadiazol-2-yl)-7-oxo-1,6-diazabicyclo[3.2.1]octan-6-yl hydrogen sulfate] | more active than Avibactam | more active than Avibactam
O=C1N2C[C@@H](CC[C@H]2c2nnc(CCNC3CNC3)o2)N1OS(=O)(=O)O [Compound 745, (2S,5R)-2-(5-(2-(azetidin-3-ylamino)ethyl)-1,3,4-oxadiazol-2-yl)-7-oxo-1,6-diazabicyclo[3.2.1]octan-6-yl hydrogen sulfate] | more active than Avibactam | more active than Avibactam
O=C1N2C[C@@H](CC[C@H]2c2nnc(CC3CCNC3)o2)N1OS(=O)(=O)O (stereo partly drawn) [Compound 764, (2S,5R)-7-oxo-2-(5-(pyrrolidin-3-ylmethyl)-1,3,4-oxadiazol-2-yl)-1,6-diazabicyclo[3.2.1]octan-6-yl hydrogen sulfate] | more active than Avibactam | more active than Avibactam
N[C@@H]1CC[C@H](c2nnc([C@@H]3CC[C@@H]4CN3C(=O)N4OS(=O)(=O)O)o2)C1 [Compound 729, (2S,5R)-2-(5-((1S,3R)-3-aminocyclopentyl)-1,3,4-oxadiazol-2-yl)-7-oxo-1,6-diazabicyclo[3.2.1]octan-6-yl hydrogen sulfate] | more active than Avibactam | more active than Avibactam
N[C@H]1CN[C@@H](c2nnc([C@@H]3CC[C@@H]4CN3C(=O)N4OS(=O)(=O)O)o2)C1 [Compound 761, (2S,5R)-2-(5-((2R,4R)-4-aminopyrrolidin-2-yl)-1,3,4-oxadiazol-2-yl)-7-oxo-1,6-diazabicyclo[3.2.1]octan-6-yl hydrogen sulfate] | more active than Avibactam | more active than Avibactam
